From US20090227683A1, “Compositions for Providing an Analgesic Effect to the Skin” (priority 2008, published 2009)

Tests used:
[1] = tested on: Albino male CD-1 mice (neurogenic inflammation induced by Resiniferatoxin); test: Resiniferatoxin neurogenic inflammation model in the mouse ear (ear edema); assay type: in vivo; conditions: for inhibition of the neurogenic inflammatory response to resiniferatoxin, in words: summary of Tables 2 to 4
Excerpt: Neurosensory inflammation, also referred to as neurogenic inflammation, is a type of inflammation triggered by sensory nerve activation in skin. Certain natural substances that act on vanilloid receptors cause sensory nerves (C-fibers) to release inflammatory neuropeptides. In mouse skin, an edema response occurs rapidly upon application of a vanilloid receptor activator, such as capsaicin or resiniferatoxin (RTX).
Albino male CD-1 mice, 7-9 weeks old, were used. […] A 20-μL volume of Resiniferatoxin (0.05%) prepared in acetone was applied to the left ears (7 mice per treatment group). The right ear was not treated. Test agents were prepared in a 70% ethanol/30% propylene glycol vehicle and applied to the left ear (20 μL) immediately after resiniferatoxin challenge. The percent inhibition was calculated by comparing treatments to resiniferatoxin alone. Anti-neurogenic inflammation effects of compounds are evident as an inhibition of the increase in ear weight.

[2] = tested on: Albino male CD-1 mice (scratching induced by Compound 48/80); test: Scratching against Compound 48/80 in mice; assay type: in vivo; conditions: for effect on Compound 48/80 scratching, in words: text summary of Tables 1 and 8
Description: (§1) Albino male CD-1 mice, 7-9 weeks old, were used. Testing was based on known methods (See Liebel et al., Arch Dermatol Res. 298:191-199, 2006.) Test agents were prepared at concentrations noted in Table 1 in 100% ethanol and 50 μL was applied topically to the shaved dorsal skin 30 minutes prior to induction of scratching (8 mice per treatment group). Compound 48/80 (50 μg/50 μL: w/v) was then injected inter-dermal to the dorsal area and scratches were then counted for 30 minutes.
as §1, with “prepared” for “prepared at concentrations noted in Table 1”, “uL” for “μL”, “ug/50 uL” for “μg/50 μL:”

[3] = Table 2, topical dose 0.5 % w/v in 70% ethanol/30% propylene glycol, 20 μL to ear immediately after resiniferatoxin
[4] = Table 8, topical dose 1 % w/v in 100% ethanol, 50 uL, 30 minutes prior to Compound 48/80

[Ca+2].[Cl-].[Cl-] [Calcium Chloride, reference compound]
% Inhibition of the Ear Edema ([1]; Table 3, topical dose 1 % w/v): −3.24%

CC(O)C(=O)[O-].[K+] (stereo not drawn) [Potassium Lactate]
% Inhibition of the Ear Edema ([1]; Table 2, topical dose 0.206 % w/v, 20 μL to ear immediately after resiniferatoxin): 13.52% | % Inhibition of the Ear Edema ([1]; Table 4, topical dose 0.206 % w/v): 13.52% | inhibition of the neurogenic inflammatory response to resiniferatoxin, in words [1]: failed to significantly inhibit | % Inhibition of Scratching ([2]; Table 1, topical dose 0.206 % w/v in 100% ethanol, 50 μL, 30 minutes prior to Compound 48/80): −8.84% | effect on Compound 48/80 scratching, in words [2]: very weak to no inhibition

CCN(CC)CC(=O)Nc1c(C)cccc1C [Lidocaine, reference compound]
% Inhibition of the Ear Edema [1, 3]: 28.7%

CC(N/C(=N\C#N)Nc1ccncc1)C(C)(C)C (stereo not drawn) [Pinacidil, reference compound]
% Inhibition of Scratching [2, 4]: 17.03%

O=C([O-])[O-].[K+].[K+] [Potassium Carbonate]
% Inhibition of the Ear Edema ([1]; Table 4, topical dose 0.283 % w/v): 4.52%

Nc1cc(N2CCCCC2)nc(N)[n+]1[O-] [Minoxidil, reference compound]
% Inhibition of Scratching [2, 4]: 8.42%

CC(=O)[O-].[K+] [Potassium Acetate]
% Inhibition of the Ear Edema ([1]; Table 4, topical dose 0.398 % w/v): −2.89%

CC(C)NCCN(CCNC(C)C)CCNC(C)C [Tris[2-(isopropylamino)ethylamine]
% Inhibition of the Ear Edema [1, 3]: 13.62% | inhibition of the neurogenic inflammatory response to resiniferatoxin, in words [1]: failed to significantly inhibit

[Cl-].[K+] [Potassium Chloride]
% Inhibition of the Ear Edema ([1]; Table 3, topical dose 0.524 % w/v): 9.98% | % Inhibition of the Ear Edema ([1]; Table 4, topical dose 0.524 % w/v): 9.98%

[Cl-].[Na+] [Sodium Chloride, reference compound]
% Inhibition of the Ear Edema ([1]; Table 3, topical dose 1 % w/v): 7.06%

CC(O)CN(CCN(CC(C)O)CC(C)O)CC(C)O (stereo not drawn) [Tetrahydroxypropyl ethylenediamine, N,N,N′,N′-Tetrakis(2-hydroxypropyl)ethylenediamine]
% Inhibition of the Ear Edema ([1]; Table 2, topical dose 1 % w/v, 20 μL to ear immediately after resiniferatoxin): 4.04% | inhibition of the neurogenic inflammatory response to resiniferatoxin, in words [1]: failed to significantly inhibit | % Inhibition of Scratching ([2]; Table 1, topical dose 1 % w/v in 100% ethanol, 50 μL on shaved dorsal skin 30 minutes prior to Compound 48/80, scratches counted for 30 minutes): 9.39% | % Inhibition of Scratching [2, 4]: 9.39% | effect on Compound 48/80 scratching, in words [2]: very weak to no inhibition
